Consider 1 molecule from US20170275287A1, “NOVEL N2, N4, N7, 6-TETRASUBSTITUTED PTERIDINE-2,4,7-TRIAMINE AND 2, 4, 6, 7-TETRASUBSTITUTED PTERIDINE COMPOUNDS AND METHODS OF SYNTHESIS AND USE THEREOF” (Janus Biotherapeutics, Inc., priority 2014, published 2017).

Usually AUC stands for concentration integrated over time. As a reminder, the bioavailability is dose-corrected exposure relative to a reference, in per cent. What is called Cmax is the highest concentration seen after dosing. As usually defined, the Tmax is the time at which the peak concentration occurs. By solubility is commonly meant the concentration that dissolves in the medium under given conditions.

Data set [1] in a line: Pharmacokinetic study in rats, IV and PO, whole blood (Charles River). Type of data set: in vivo, Sprague-Dawley rats. On the procedure: A pharmacokinetic study was performed by Charles River Wilmington Mass., in rats and the doses where 2 mg/kg IV and 10 mg/kg PO and whole blood levels were measured for 72 h. The calculated pharmacokinetic parameters for 24 h are given below in Table 8.
Six (6) male Sprague-Dawley rats were selected from the Testing Facility's rodent colony. The animals were enrolled in the study based on acceptable health as determined by a Testing Facility veterinarian and based on patency of femoral and jugular vein catheters. Fasting was performed for at least 16 hours prior to dosing. Food was also withheld until after the 4 hour time point collection. The animals were placed into 2 groups of 3 animals per group. Each animal in Group 1 received prepared JB6121 by intravenous dose administration at a target dose level of 2 mg/kg and at a dose volume of 1 mL/kg. Immediately following intravenous dosing, the inter-dwelling catheter was flushed with 0.5 mL of saline. Each animal in Group 2 received prepared JB6121 by oral gavage dose administration at a target dose level of 10 mg/kg and at a dose volume of 10 mL/kg.
Whole blood samples (0.300 mL; K2EDTA anticoagulant) were collected from each animal through a jugular vein catheter. Whole blood samples were collected from all animals at 30 minutes and at 1, 2, 4, 6, 12, 24, 48, and 72 hours after dose administration.
Whole blood samples were transferred to the Charle River Bioanalytical Sciences Laboratory, Wilmington Mass., for analysis. Pharmacokinetic parameters were estimated using Watson pharmacokinetic software (Version No. 7.2) using a non-compartmental approach consistent with the IV or PO route of administration.

For a further data set, the system named is five bacterial strains. In words: Non-GLP AMES test (BioRelience). To be noted: five bacterial strains plus or minus S9 fraction to 5000 μg. How it is done: A non-GLP AMES test study was performed by BioRelience Inc, MD according to Maron, D. M. and Ames, B. N., 1983, Mutation Res., 113:173-215. The test was performed in five bacterial strains plus or minus S9 fraction to 5000 μg.

Data set [2] can be described thus: Aqueous solubility (CEREP). The format is physicochemical. How it is done: Preliminary screening measures were conducted by CEREP. All values fall within acceptable limits (Table 5). Solubility assays where performed by CEREP, Seattle, Wash., according to Lipinski, C. A. et al., 1997, Adv. Drug Del. Rev., 46:3-26. Protein binding assays where performed by CEREP, Seattle, Wash., according to Banker, M. J. et al., 2003, J. Pharm. Sci., 92:967-974. Permeability assays where performed by CEREP, Seattle, Wash. according to Hildalgo, I. J., 1998, Gastroenterology, 96:736-749. Metabolic stability assays where performed by CEREP, Seattle, Wash., according to Obach, R. S. et al., 1997, J. Pharmacol. Exp. Ther., 283:46-58. P-glycoprotein inhibition assays where performed by CEREP, Seattle, Wash., according to Polli, J. W. et al., 2001, J. Pharm. Exp. Ther., 299:620-628. Cell viability assays where performed by CEREP, Seattle, Wash., according to Mosmann, T., 1983, J. Immunol. Met. 65:55-62. hERG automated patch clamp assays where performed by CEREP, Seattle, Wash., according to Mathes, C., 2006, Expert Opin. Ther. Targets, 10:230-241.

The mark [3] stands for this setting: male, Sprague-Dawley, whole blood, Rat, PO 10.0 mg/kg.

≈ marks a conversion by molar mass, not a printed value. Read-outs that look alike come from different tables or passages of the source.

As for `CN1CCN(c2nc(NCCN3CCOCC3)c3nc(Cl)c(NCCN4CCOCC4)nc3n2)CC1` [JB6121, 6-chloro-2-(4-methylpiperazin-1-yl)-N^4,N^7-bis(2-morpholinoethyl)pteridine-4,7-diamine], the AUC is 2040 ng·h/mL in data set [1] (male, Sprague-Dawley, rat, whole blood, iv, 2 mg/kg, Rat, IV 2.0 mg/kg, read-out: AUC); 2230 ng·h/mL in data set [1] (male, Sprague-Dawley, rat, whole blood, iv, 2 mg/kg, Rat, IV 2.0 mg/kg, read-out: AUC Extrap); 2100 ng·h/mL in data set [1] (male, Sprague-Dawley, rat, whole blood, po, 10 mg/kg, Rat, PO 10.0 mg/kg, read-out: AUC); 2310 ng·h/mL in data set [1] (male, Sprague-Dawley, rat, whole blood, po, 10 mg/kg, Rat, PO 10.0 mg/kg, read-out: AUC Extrap). For the same molecule, the bioavailability is greater than 20% in data set [1] (male, Sprague-Dawley, rat, whole blood, oral, 10 mg/kg, summary statement, read-out: in vivo bioavailability) and 20.6% in data set [1] (male, Sprague-Dawley, whole blood, Rat, PO 10.0 mg/kg, read-out: Bioavailability). Moreover, in data set [1] (male, Sprague-Dawley, whole blood, Rat, IV 2.0 mg/kg), the clearance amounted to 16.4 mL/min/kg. For the same molecule, in data set [1] (male, Sprague-Dawley, whole blood, Rat, IV 2.0 mg/kg, read-out: Vdss), the Vd came to 21.6 L/kg. This molecule also displayed a Cmax in data set [1] (setting [3]) of 149 ng/mL. Also, the time to peak (Tmax) in data set [1] (setting [3]) was 3.33 h. In addition, in data set [1] (male, Sprague-Dawley, Rat, IV 2.0 mg/kg, whole blood, 24 h, read-out: T½ (converted)), the half-life was 9.71 h. For the same molecule, in data set [1] (rats, 2 mg/kg IV and 10 mg/kg PO), the “clinically relevant abnormalities during dosing and sampling” value is on record as “no abnormalities were noted”. For the same molecule, the AMES test entry in the data set on five bacterial strains was “no toxicity”. Besides, the solubility in data set [2] (PBS, pH 7.4, aqueous buffer, read-out: Aqueous Solubility, PBS, pH 7.4) is greater than 200 µM; in data set [2] (simulated gastric fluid, read-out: Aqueous Solubility, simulated Gastric Fluid), greater than 200 µM; in data set [2] (simulated intestinal fluid, fassgf or other biorelevant, read-out: Aqueous Solubility, simulated Intestinal Fluid), 195 µM (≈ 102 µg/mL).
